Data on 42 compounds can be found in patent US12617773B2, “Azetidin-3-ylmethanol derivatives as CCR6 receptor modulators” (Idorsia Pharmaceuticals Ltd, priority 2020, dated 2026).

As a reminder, the IC50 is the concentration needed to halve the response being measured.

For one assay, the target named is T1, human CCR6 (Homo sapiens, UniProt P51684).
T1 construct: expressed in transfected cells; host or cells: HEK-293
T1 sequence (P51684 1-374): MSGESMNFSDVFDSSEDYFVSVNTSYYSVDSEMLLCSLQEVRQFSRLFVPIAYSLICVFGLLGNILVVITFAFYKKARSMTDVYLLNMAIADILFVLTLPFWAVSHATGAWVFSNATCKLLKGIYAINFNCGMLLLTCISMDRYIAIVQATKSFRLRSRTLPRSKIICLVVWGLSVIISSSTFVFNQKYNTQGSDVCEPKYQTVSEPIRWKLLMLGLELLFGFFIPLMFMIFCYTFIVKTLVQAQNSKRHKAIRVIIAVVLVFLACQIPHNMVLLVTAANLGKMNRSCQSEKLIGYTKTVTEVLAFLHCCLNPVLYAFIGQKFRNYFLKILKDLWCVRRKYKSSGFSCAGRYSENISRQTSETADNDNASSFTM
The assay can be described thus: FLIPR assay (inhibition of CCL20-induced calcium signal). The class given is cell-based. Conditions: FLIPR IC50 (nM), HEK-293 cells expressing human CCR6; mean values where determined several times. The method in brief: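 IC50 values come from baseline-corrected peak calcium fluorescence after agonist. The agonist was CCL20 at 10 nM final, added to engineered human CCR6 HEK-293 cells following a 30-min, room-temperature, dark preincubation with serially diluted compound. Readings were taken in a fluorometric imaging plate reader.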
Take `CC(C)c1ccc([C@](O)(c2cncc(N3C4CCC3CC4)c2)C2(C)CN(C)C2)cc1` [Example 177]: the IC50 stood at 284 nM.

The assay is the same for the next values; noted with them: HEK-293 cells expressing human CCR6; mean values where determined several times; read-out: FLIPR IC50.
For the compound `CC(C)COc1cc([C@@](O)(c2ccc(C(C)C)cc2)C2(C)CN(C)C2)ccn1` [Example 164, (S)-(1,3-Dimethyl-azetidin-3-yl)-(2-isobutoxy-pyridin-4-yl)-(4-isopropyl-phenyl)-methanol], the IC50 was found to be 18.9 nM. On the same count and under the same terms, as for `CC(C)c1ccc([C@](O)(c2ccnc(CCC(C)(C)O)c2)C2(C)CN(C)C2)cc1` [Example 165, 4-{4-[(S)-(1,3-Dimethyl-azetidin-3-yl)-hydroxy-(4-isopropyl-phenyl)-methyl]-pyridin-2-yl}-2-methyl-butan-2-ol], the figure is 677 nM; as for `CC(C)c1ccc([C@](O)(c2cnnc(N3CCC(F)(F)C3)c2)C2(C)CN(C)C2)cc1` [Example 166, (R)-[6-(3,3-Difluoro-pyrrolidin-1-yl)-pyridazin-4-yl]-(1,3-dimethyl-azetidin-3-yl)-(4-isopropyl-phenyl)-methanol], 85.3 nM. For `CC(C)c1ccc([C@](O)(c2cncc(N3CC[C@H](CO)C3)c2)C2(C)CN(C)C2)cc1` [Example 170], the IC50 was 133 nM. The same measure, in the same setting: under `CC(C)c1ccc([C@](O)(c2cncc(N3CCC(O)(C4CC4)C3)c2)C2(C)CN(C)C2)cc1` (stereo partly drawn) [Example 173] stands 77.9 nM; under `CC(C)c1ccc([C@](O)(c2cncc(N3CCCCC3)c2)C2(C)CN(C)C2)cc1` [Example 176], 39.2 nM; under `CC(C)c1ccc([C@](O)(c2cncc(N3CCC[C@@H]3C)c2)C2(C)CN(C)C2)cc1` [Example 178], 47.5 nM. In the case of `CC(C)c1ccc([C@](O)(c2cncc(N3CCC(O)(C(F)(F)F)C3)c2)C2(C)CN(C)C2)cc1` (stereo partly drawn) [Example 179], the IC50 was found to be 64.5 nM.

On to `CC(C)c1ccc([C@](O)(c2cncc(N3CCC(F)(F)C3)c2)C2(C)CN(C)C2)cc1` [Example 180], for which the IC50 was found to be 55.7 nM.

As for `CC(C)c1ccc([C@](O)(c2cncc(N3CCC(O)CC3)c2)C2(C)CN(C)C2)cc1` [Example 181], the IC50 is 295 nM. Still for that read-out and setting: as for `CC(C)c1ccc([C@](O)(c2cncc(N3CCCC(O)C3)c2)C2(C)CN(C)C2)cc1` (stereo partly drawn) [Example 182], the figure is 86.5 nM; as for `CC(C)c1ccc([C@](O)(c2cncc(N(C)CCOCc3ccccc3)c2)C2(C)CN(C)C2)cc1` [Example 183], 31.7 nM; as for `CN1CC(C)([C@](O)(c2ccc(C3(C)CC3)cc2)c2cncc(N3CCCC3)c2)C1` [Example 184], 16.5 nM. The same measure, in the same setting: under `CN1CC(C)([C@](O)(c2ccc(C3(C(F)(F)F)CC3)cc2)c2cncc(N3C[C@@H](F)[C@@H](F)C3)c2)C1` [Example 185] stands 27.9 nM.

As to `CN1CC(C)([C@](O)(c2ccc(C3(C(F)(F)F)CC3)cc2)c2cncc(N3CC[C@H](C(C)(C)O)C3)c2)C1` [Example 186], the 50% inhibitory concentration (IC50) came out at 43.5 nM. In the case of `CN1CC(C)([C@](O)(c2ccc(C3(C(F)(F)F)CC3)cc2)c2cncc(N3CCCC3)c2)C1` [Example 187], the IC50 is 15.8 nM.

With `CN1CC(C)([C@](O)(c2ccc(C(C)(C)C)cc2)c2cncc(N3CCCCC3)c2)C1` [Example 188], the IC50 turned out to be 23.4 nM.

Regarding `CC(C)c1ccc([C@](O)(c2cncc(-c3noc(C4CCN(S(=O)(=O)C5CC5)CC4)n3)c2)C2(C)CN(C)C2)cc1` [Example 190, (R)-{5-[5-(1-Cyclopropanesulfonyl-piperidin-4-yl)-[1,2,4]oxadiazol-3-yl]-pyridin-3-yl}-(1,3-dimethyl-azetidin-3-yl)-(4-isopropyl-phenyl)-methanol], the concentration for half-maximal inhibition (IC50) is 38 nM. The same measure, in the same setting: as for `CC(C)c1ccc([C@](O)(c2cncc(N(C)CCO)c2)C2(C)CN(C)C2)cc1` [Example 191, 2-({5-[(R)-(1,3-Dimethyl-azetidin-3-yl)-hydroxy-(4-isopropyl-phenyl)-methyl]-pyridin-3-yl}-methyl-amino)-ethanol], the figure is 317 nM. Still for that read-out and setting: under `CC(C)c1ccc([C@](O)(c2cncc(N3CC(c4ccccc4)OC3=O)c2)C2(C)CN(C)C2)cc1` (stereo partly drawn) [Example 194] stands 20.5 nM. Turning to `CC(C)c1ccc([C@](O)(c2cncc(N3CC(Cc4ccccc4)OC3=O)c2)C2(C)CN(C)C2)cc1` (stereo partly drawn) [Example 195], the IC50 is 29.3 nM. Consider `CC(C)c1ccc([C@](O)(c2cncc(N3CC(C(C)C)OC3=O)c2)C2(C)CN(C)C2)cc1` (stereo partly drawn) [Example 196], for which the IC50 was found to be 67.6 nM. Same read-out and setting: under `CC(C)c1ccc([C@](O)(c2cncc(N3CC4(CC4)OC3=O)c2)C2(C)CN(C)C2)cc1` [Example 197] stands 106 nM; under `CC(C)c1ccc([C@](O)(c2cncc(N3CC4(CCCC4)OC3=O)c2)C2(C)CN(C)C2)cc1` [Example 198], 70.8 nM; under `CC(C)c1ccc([C@](O)(c2cncc(N3CC(C4CCOCC4)OC3=O)c2)C2(C)CN(C)C2)cc1` (stereo partly drawn) [Example 199], 487 nM. The same measure, in the same setting: under `CC(C)c1ccc([C@](O)(c2cncc(N3CC(C)(C)OC3=O)c2)C2(C)CN(C)C2)cc1` [Example 200] stands 407 nM; under `CC(C)c1ccc([C@](O)(c2cncc(N3CC4(CCC(F)(F)CC4)OC3=O)c2)C2(C)CN(C)C2)cc1` [Example 201], 159 nM; under `CC(C)c1ccc([C@](O)(c2cncc(N3CC4(CC5(CCC5)C4)OC3=O)c2)C2(C)CN(C)C2)cc1` [Example 202], 29.9 nM.

As to `CC(C)c1ccc([C@](O)(c2cncc(N3CC4(CC(C5CC5)C4)OC3=O)c2)C2(C)CN(C)C2)cc1` (stereo partly drawn) [Example 203], the 50% inhibitory concentration (IC50) was determined as 64.9 nM.

As for `CC(C)c1ccc([C@](O)(c2cncc(N3CC4(CC(C)(C)C4)OC3=O)c2)C2(C)CN(C)C2)cc1` [Example 204], the IC50 was 48.2 nM. On to `CC(C)c1ccc([C@](O)(c2cncc(N3CC(c4ccccc4)CC3=O)c2)C2(C)CN(C)C2)cc1` (stereo partly drawn) [Example 205], for which the IC50 stood at 26.9 nM. Same read-out and setting: as for `CC(C)c1ccc([C@](O)(c2cncc(N3CCC(C(C)C)C3=O)c2)C2(C)CN(C)C2)cc1` (stereo partly drawn) [Example 208], the figure is 38.4 nM. On the same count and under the same terms, as for `CC(C)c1ccc([C@](O)(c2cncc(N3CC(C)(C)CC3=O)c2)C2(C)CN(C)C2)cc1` [Example 209], the figure is 205 nM; as for `CC(C)c1ccc([C@](O)(c2cncc(N3CC4(CCCC4)CC3=O)c2)C2(C)CN(C)C2)cc1` [Example 211], 50.1 nM; as for `CC(C)c1ccc([C@](O)(c2cncc(N3CCC4(CCC4)C3=O)c2)C2(C)CN(C)C2)cc1` [Example 212], 70.8 nM. The same measure, in the same setting: as for `CC(C)c1ccc([C@](O)(c2cncc(N3CC4(CCOCC4)CC3=O)c2)C2(C)CN(C)C2)cc1` [Example 213], the figure is 459 nM; as for `CC(C)c1ccc([C@](O)(c2cncc(N3CCC(C4CCOCC4)C3=O)c2)C2(C)CN(C)C2)cc1` (stereo partly drawn) [Example 214], 184 nM; as for `CC(C)c1ccc([C@](O)(c2cncc(N3CCC4(CCCCC4)C3=O)c2)C2(C)CN(C)C2)cc1` [Example 215], 50.9 nM.

Regarding `CC(C)c1ccc([C@](O)(c2cncc(N3CCC4(CCOCC4)C3=O)c2)C2(C)CN(C)C2)cc1` [Example 216], the half-maximal inhibitory concentration (IC50) came out at 476 nM. For the compound `CC(C)C[C@H]1CC(=O)N(c2cncc([C@@](O)(c3ccc(C(C)C)cc3)C3(C)CN(C)C3)c2)C1` [Example 217], the IC50 worked out at 43.3 nM. Same read-out and setting: under `CC(C)c1ccc([C@](O)(c2cncc(N3CC(C4CC4)CC3=O)c2)C2(C)CN(C)C2)cc1` (stereo partly drawn) [Example 218] stands 60.4 nM.
